According to patent US20240174690A1, “ANNULATED 2-AMINO-3-CYANO THIOPHENES AND DERIVATIVES FOR THE TREATMENT OF CANCER” (BOEHRINGER INGELHEIM INTERNATIONAL GMBH, priority 2021, published 2024):

What was measured:
KRAS (WT)::SOS1 = KRAS (WT)::SOS1 (Homo sapiens (Human), UniProt P01116, C118S); assay: KRAS::SOS1 AlphaScreen binding assay, KRAS WT
Procedure, shortened: (§1)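 Compounds (up to 100 μM, eleven fivefold dilutions in duplicate) were incubated 30 min with KRAS 1-169 (10 nM, or 7.5 nM for G12C), GST-SOS1 564-1049 (5 nM for G12D/G12C, 10 nM for others) and 10 μM GDP in PBS buffer with BSA and Tween. Donor/acceptor beads were then added for 60 min at room temperature, and IC50 came from a 4-parameter fit of the AlphaScreen signal.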

KRAS (G13D)::SOS1 = KRAS (G13D)::SOS1 (Homo sapiens (Human), UniProt P01116, C118S/G13D); assay: KRAS::SOS1 AlphaScreen binding assay, KRAS G13D
Procedure, shortened: as §1

KRAS (G12V)::SOS1 = KRAS (G12V)::SOS1 (Homo sapiens (Human), UniProt P01116, C118S/G12V); assay: KRAS::SOS1 AlphaScreen binding assay, KRAS G12V
Procedure, shortened: as §1

A375 cells = assay: A375 CTG proliferation assay (120 h) (melanoma, wt, B-Raf mutant, negative control); type: cell-based; settings: Homo sapiens, A-375, CTG 120 h
Procedure, shortened: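 Cells seeded at 300/well in DMEM + 10% FCS, dosed next day with a logarithmic dilution series and incubated 120 h at 37 °C. Viability read by CellTiter-Glo luminescence as percent of DMSO control; IC50 from four-parameter nonlinear regression.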

KRAS (G13D)::SOS1, sequence (P01116 other isoform, or with tags, fused parts or gaps G13D/C118S): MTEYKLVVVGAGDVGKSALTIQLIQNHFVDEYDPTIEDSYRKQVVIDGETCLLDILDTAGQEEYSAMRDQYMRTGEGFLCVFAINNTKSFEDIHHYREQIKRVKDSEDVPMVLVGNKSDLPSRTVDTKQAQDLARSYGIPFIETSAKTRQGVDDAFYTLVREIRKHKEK
KRAS (G12V)::SOS1, sequence (P01116 other isoform, or with tags, fused parts or gaps G12V/C118S): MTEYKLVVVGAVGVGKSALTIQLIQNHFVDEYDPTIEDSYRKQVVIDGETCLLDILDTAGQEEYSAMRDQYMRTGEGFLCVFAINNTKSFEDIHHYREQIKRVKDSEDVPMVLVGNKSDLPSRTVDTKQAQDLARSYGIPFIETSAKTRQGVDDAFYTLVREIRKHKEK
KRAS (WT)::SOS1, sequence (P01116 other isoform, or with tags, fused parts or gaps C118S): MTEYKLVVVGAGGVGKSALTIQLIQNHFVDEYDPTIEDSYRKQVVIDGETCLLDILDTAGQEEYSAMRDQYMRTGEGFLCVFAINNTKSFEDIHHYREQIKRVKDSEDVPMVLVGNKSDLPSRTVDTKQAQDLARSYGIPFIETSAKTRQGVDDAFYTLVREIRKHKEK

In the case of `C[C@H](Oc1nc(-c2onc3c2CCC[C@@]32CCCc3sc(N)c(C#N)c32)cc(N2CCNC3(CC3)C2)n1)[C@@H]1CCCN1C` [I-2], the IC50 (KRAS (WT)::SOS1) is reported as 42 nM.
For `C[C@H](Oc1cc(N2CCNC3(CCC3)C2)nc(-c2onc3c2CCC[C@@]32CCCc3sc(N)c(C#N)c32)n1)[C@@H]1CCCN1C` [I-3], the IC50 (KRAS (WT)::SOS1) was 7 nM.
`C[C@H](Oc1cc(N2CCNC3(COC3)C2)nc(-c2onc3c2CCC[C@@]32CCCc3sc(N)c(C#N)c32)n1)[C@@H]1CCCN1C` [I-4] showed an IC50 (KRAS (G13D)::SOS1) of 20 nM, an IC50 (KRAS (G12V)::SOS1) of 8 nM and an IC50 (KRAS (WT)::SOS1) of 3 nM.
`C[C@H](Oc1cc([C@@H]2CCOC2)nc(-c2onc3c2CCC[C@@]32CCCc3sc(N)c(C#N)c32)n1)[C@@H]1CCCN1C` [I-22] was tested, and the IC50 (KRAS (WT)::SOS1) was 3 nM and the IC50 (A375 cells) was over 3000 nM.
`Cc1ccc(-c2cc(O[C@@H](C)[C@@H]3CCCN3C)nc(-c3onc4c3CCC[C@@]43CCCc4sc(N)c(C#N)c43)n2)cn1` [I-28] was tested, and the IC50 (KRAS (G12V)::SOS1) was 3 nM and the IC50 (KRAS (WT)::SOS1) was 18 nM.
Work on `C[C@H](Oc1cc(-c2ccn(C[C@@H](C)O)n2)nc(-c2onc3c2CCC[C@@]32CCCc3sc(N)c(C#N)c32)n1)[C@@H]1CCCN1C` [I-30] yielded an IC50 (KRAS (WT)::SOS1) of 3 nM.
In the case of `C[C@H](Oc1cc(-c2ccn(C3COC3)n2)nc(-c2onc3c2CCC[C@@]32CCCc3sc(N)c(C#N)c32)n1)[C@@H]1CCCN1C` [I-34], the IC50 (KRAS (WT)::SOS1) is reported as 4 nM.
`C[C@H](Oc1cc(N2CCN(C)C3(COC3)C2)nc(-c2onc3c2CCC[C@@]32CCCc3sc(N)c(C#N)c32)n1)[C@@H]1C[C@@H](F)CN1C` [I-37] gave an IC50 (KRAS (WT)::SOS1) of 4 nM.
With `C[C@H](Oc1cc(N2CCN(C)C3(CC3)C2)nc(-c2onc3c2CCC[C@@]32CCCc3sc(N)c(C#N)c32)n1)[C@@H]1C[C@@H](F)CN1C` [I-39] the IC50 (KRAS (G13D)::SOS1) was 146 nM and the IC50 (KRAS (WT)::SOS1) was 11 nM.
For `C[C@H](Oc1cc(N2CCN(C)C3(CC3)C2)nc(-c2onc3c2CCC[C@@]32CCCc3sc(N)c(C#N)c32)n1)[C@@H]1CCCN1C` [I-41], the IC50 (KRAS (WT)::SOS1) was 5 nM.
`C[C@H](Oc1cc(N2C[C@H](C)N(C)[C@@H](C)C2)nc(-c2onc3c2CCC[C@@]32CCCc3sc(N)c(C#N)c32)n1)[C@@H]1CCCN1C` [I-43] gave an IC50 (KRAS (G12V)::SOS1) of 8 nM.
`C[C@H](Oc1cc(N2CCNC3(CC3)C2)nc(-c2onc3c2CCC[C@@]32CCCc3sc(N)c(C#N)c32)n1)[C@@H]1C[C@@H](F)CN1C` [I-45] showed an IC50 (KRAS (G12V)::SOS1) of 8 nM and an IC50 (KRAS (WT)::SOS1) of 6 nM.
Work on `C[C@H](Oc1cc(N2C[C@@H](N(C)C)[C@@H](F)C2)nc(-c2noc3c2CCC[C@@]32CCCc3sc(N)c(C#N)c32)n1)[C@@H]1CCCN1C` [II-11] yielded an IC50 (KRAS (WT)::SOS1) of 4 nM.
With `C[C@H](Oc1cc(N2CC[C@H](N3CCCCC3)C2)nc(-c2noc3c2CCC[C@@]32CCCc3sc(N)c(C#N)c32)n1)[C@@H]1CCCN1C` [II-12] the IC50 (KRAS (WT)::SOS1) was 15 nM.
Work on `C[C@H](Oc1cc(N2CCN(C)C3(COC3)C2)nc(-c2noc3c2CCC[C@@]32CCCc3sc(N)c(C#N)c32)n1)[C@@H]1CCCN1C` [II-13] yielded an IC50 (KRAS (G13D)::SOS1) of 8 nM, an IC50 (KRAS (G12V)::SOS1) of 3 nM and an IC50 (KRAS (WT)::SOS1) of 3 nM.
`C[C@H](Oc1cc(N2CC[C@H](N3CCCC3)C2)nc(-c2noc3c2CCC[C@@]32CCCc3sc(N)c(C#N)c32)n1)[C@@H]1CCCN1C` [II-14] was tested, and the IC50 (KRAS (WT)::SOS1) was 15 nM.
With `C[C@H](Oc1cc(N2CC[C@H](N(C)C)C2)nc(-c2noc3c2CCC[C@@]32CCCc3sc(N)c(C#N)c32)n1)[C@@H]1C[C@@H](F)CN1C` [II-15] the IC50 (KRAS (G13D)::SOS1) was 71 nM, the IC50 (KRAS (G12V)::SOS1) was 39 nM and the IC50 (KRAS (WT)::SOS1) was 11 nM.
Compound `C[C@@H]1CN(c2cc(O[C@@H](C)[C@@H]3C[C@@H](F)CN3C)nc(-c3noc4c3CCC[C@@]43CCCc4sc(N)c(C#N)c43)n2)CC2(CC2)N1` [II-17] has an IC50 (KRAS (WT)::SOS1) of 5 nM.
Compound `C[C@H](Oc1cc(N2C[C@H](C)NC3(CC3)C2)nc(-c2noc3c2CCC[C@@]32CCCc3sc(N)c(C#N)c32)n1)[C@@H]1C[C@@H](F)CN1C` [II-18] has an IC50 (KRAS (WT)::SOS1) of 6 nM.
With `C[C@H](Oc1cc(-n2ccc(C(=O)N3CCCC3)n2)nc(-c2noc3c2CCC[C@@]32CCCc3sc(N)c(C#N)c32)n1)[C@@H]1CCCN1C` [II-19] the IC50 (KRAS (G13D)::SOS1) was 9 nM and the IC50 (A375 cells) was 1120 nM.
Work on `CNC(=O)c1ccn(-c2cc(O[C@@H](C)[C@@H]3CCCN3C)nc(-c3noc4c3CCC[C@@]43CCCc4sc(N)c(C#N)c43)n2)n1` [II-20] yielded an IC50 (KRAS (G12V)::SOS1) of 2 nM, an IC50 (KRAS (WT)::SOS1) of 4 nM and an IC50 (A375 cells) of over 3000 nM.
`C[C@H](Oc1cc(-n2ccc(C(N)=O)n2)nc(-c2noc3c2CCC[C@@]32CCCc3sc(N)c(C#N)c32)n1)[C@@H]1CCCN1C` [II-21] showed an IC50 (KRAS (G13D)::SOS1) of 12 nM, an IC50 (KRAS (G12V)::SOS1) of 1 nM and an IC50 (KRAS (WT)::SOS1) of 3 nM. For the same compound, the IC50 (A375 cells) was over 3000 nM.
For `C[C@H](Oc1cc(-n2ccc(C(=O)NC3COC3)n2)nc(-c2noc3c2CCC[C@@]32CCCc3sc(N)c(C#N)c32)n1)[C@@H]1CCCN1C` [II-25], the IC50 (KRAS (G13D)::SOS1) was 11 nM, the IC50 (KRAS (G12V)::SOS1) was 7 nM and the IC50 (KRAS (WT)::SOS1) was 16 nM.
`C[C@H](Oc1cc(-n2ccc(C(=O)NC3(C)COC3)n2)nc(-c2noc3c2CCC[C@@]32CCCc3sc(N)c(C#N)c32)n1)[C@@H]1CCCN1C` [II-26] gave an IC50 (KRAS (G13D)::SOS1) of 8 nM, an IC50 (KRAS (G12V)::SOS1) of 2 nM and an IC50 (KRAS (WT)::SOS1) of 3 nM.
Compound `C[C@H](Oc1cc(-c2ccn(C)n2)nc(-c2noc3c2CCC[C@@]32CCCc3sc(N)c(C#N)c32)n1)[C@@H]1C[C@@H](F)CN1C` [II-27] has an IC50 (A375 cells) of over 3000 nM.
`C[C@H](Oc1cc(-c2cnn(C)n2)nc(-c2noc3c2CCC[C@@]32CCCc3sc(N)c(C#N)c32)n1)[C@@H]1C[C@@H](F)CN1C` [II-28] was tested, and the IC50 (KRAS (G12V)::SOS1) was 12 nM.
`C[C@H](Oc1cc(N2CCNC3(COC3)C2)nc(-c2noc3c2CCC[C@@]32CCCc3sc(N)c(C#N)c32)n1)[C@@H]1CCCN1C` [II-31] showed an IC50 (KRAS (G13D)::SOS1) of 8 nM.
Compound `C[C@H](Oc1cc(N2CC3CCC(C2)N3)nc(-c2noc3c2CCC[C@@]32CCCc3sc(N)c(C#N)c32)n1)[C@@H]1CCCN1C` [II-34] has an IC50 (KRAS (G13D)::SOS1) of 38 nM, an IC50 (KRAS (G12V)::SOS1) of 17 nM and an IC50 (KRAS (WT)::SOS1) of 8 nM.
`CN[C@H]1CCN(c2cc(O[C@@H](C)[C@@H]3CCCN3C)nc(-c3noc4c3CCC[C@@]43CCCc4sc(N)c(C#N)c43)n2)C1` [II-35] gave an IC50 (KRAS (WT)::SOS1) of 13 nM.
Work on `C[C@H](Oc1cc(-c2ccn([C@H]3CCCOC3)n2)nc(-c2noc3c2CCC[C@@]32CCCc3sc(N)c(C#N)c32)n1)[C@@H]1CCCN1C` [II-42] yielded an IC50 (KRAS (G12V)::SOS1) of 2 nM and an IC50 (KRAS (WT)::SOS1) of 5 nM.
For `C[C@H](Oc1nc(-c2noc3c2CCC[C@@]32CCCc3sc(N)c(C#N)c32)cc(N2C[C@H](C)N[C@@H](C)C2)n1)[C@@H]1CCCN1C` [II-46], the IC50 (KRAS (WT)::SOS1) was 53 nM.
`C[C@H](Oc1cc(N2CCC(N(C)C)CC2)nc(-c2noc3c2CCC[C@@]32CCCc3sc(N)c(C#N)c32)n1)[C@@H]1CCCN1C` [II-48] gave an IC50 (KRAS (WT)::SOS1) of 34 nM.
For `[2H]C([2H])([2H])N1C[C@H](F)C[C@H]1[C@H](C)Oc1cc(N2CCNC3(CC3)C2)nc(-c2noc3c2CCC[C@@]32CCCc3sc(N)c(C#N)c32)n1` [II-208], the IC50 (KRAS (WT)::SOS1) was 4 nM.
